Measured values as given in patent US8889704B2 (Array BioPharma Inc., priority 2011, dated 2014).
Structures can show the parent of a compound that is named as a salt.

Experiments:
Type in all cases: biochemical
recombinant rat PIM-3 = recombinant rat PIM-3 (Rattus norvegicus, UniProt O70444); assay: PIM-3 Assay (as Example A); settings: averaged IC50; 30 μM ATP, 3.75 μM PIM2tide, 0.5 nM PIM-3
Procedure, shortened: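 Recombinant rat PIM-3 (0.5 nM) with 3.75 μM PIM2tide and 30 μM [γ-33P]ATP in MOPS pH 7.4 buffer, 60 min at 22 °C; labelled peptide captured on phosphocellulose filters and counted by scintillation. 10-point curve (top dose 10 μM, 2% DMSO); IC50 from 4-parameter fit of percent of control.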

PIM-1 = PIM-1 (Homo sapiens, UniProt P11309); assay: Enzyme PIM-1 Assay ([33P]ATP incorporation into PIM2tide, filter plate); settings: averaged IC50; 35 μM ATP, 7.5 μM PIM2tide, 0.25 nM PIM-1, 60 min at 22° C.
Procedure, shortened: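 Radiometric assay: 0.25 nM PIM-1 phosphorylates 7.5 μM PIM2tide with 35 μM [γ-33P]ATP in 20 mM MOPS pH 7.4, 10 mM MgCl2, 1 mM DTT, 0.005% Tween-20, 60 min at 22 °C. Product captured on P81 filters, scintillation counted; 10-point 3-fold curve from 10 μM top, 2% DMSO, IC50 by 4-parameter logistic fit of POC.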

[1] = molecular target: T1, GST-tagged recombinant full-length human Pim-2 (Homo sapiens, UniProt Q9P1W9); assay: PIM-2 Assay (as Example A); settings: averaged IC50; 4 μM ATP, 1.0 μM PIM2tide, 1.5 nM Pim-2
T1 construct: GST-tagged recombinant full-length human Pim-2; GST
Procedure, shortened: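 Radiometric filter-binding assay: GST-tagged full-length human Pim-2 (1.5 nM) phosphorylates 1.0 μM PIM2tide with 4 μM [γ-33P]ATP for 60 min at 22 °C in pH 7.4 MOPS buffer, 2% DMSO. 10-point 3-fold dilutions from 10 μM top dose; IC50 from 4-parameter fit of percent of control.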

T1 sequence (Q9P1W9 whole entry): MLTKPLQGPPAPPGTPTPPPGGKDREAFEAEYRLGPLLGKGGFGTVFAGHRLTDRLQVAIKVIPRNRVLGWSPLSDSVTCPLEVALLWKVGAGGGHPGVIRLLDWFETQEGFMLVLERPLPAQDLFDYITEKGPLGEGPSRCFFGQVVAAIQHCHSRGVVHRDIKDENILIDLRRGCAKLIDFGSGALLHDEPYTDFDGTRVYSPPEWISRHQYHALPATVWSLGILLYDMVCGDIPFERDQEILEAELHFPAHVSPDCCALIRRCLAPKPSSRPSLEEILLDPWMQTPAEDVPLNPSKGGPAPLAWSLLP
PIM-1, sequence (P11309 whole entry, species assumed): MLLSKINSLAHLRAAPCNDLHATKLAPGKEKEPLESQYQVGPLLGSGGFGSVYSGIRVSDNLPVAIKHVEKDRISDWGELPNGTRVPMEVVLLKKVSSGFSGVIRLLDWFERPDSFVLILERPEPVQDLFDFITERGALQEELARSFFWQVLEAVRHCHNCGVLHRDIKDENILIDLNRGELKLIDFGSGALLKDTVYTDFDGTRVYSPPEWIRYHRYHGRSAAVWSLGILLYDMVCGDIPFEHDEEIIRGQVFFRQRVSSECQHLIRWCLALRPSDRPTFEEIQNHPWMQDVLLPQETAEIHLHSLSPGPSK

Row | IC50 (recombinant rat PIM-3) | IC50 (PIM-1) | IC50 [1] | SMILES
1 | 0.9 nM | 0.21 nM | 23 nM | CC(C)Oc1cc2nc(-c3nnc4ccc([C@@H](N5CC[C@H](N)C5)C(F)(F)F)cn34)ccc2cc1F [Example 119, (S)-1-((R)-2,2,2-trifluoro-1-(3-(6-fluoro-7-isopropoxyquinolin-2-yl)-[1,2,4]triazolo[4,3-a]pyridin-6-yl)ethyl)pyrrolidin-3-amine hydrochloride]
2 | 3 nM | 0.47 nM | > 100 nM | COCCOc1cc2nc(-c3nnc4ccc([C@@H](N5CC[C@H](N)C5)C(F)(F)F)cn34)ccc2cc1F [Example 120, (S)-1-((R)-2,2,2-trifluoro-1-(3-(6-fluoro-7-(2-methoxyethoxy)quinolin-2-yl)-[1,2,4]triazolo[4,3-a]pyridin-6-yl)ethyl)pyrrolidin-3-amine hydrochloride]
3 | 0.2 nM | 0.13 nM | 8.7 nM | CC(C)(CO)c1cc(F)cc2ccc(-c3nnc4ccc([C@@H](N5CC[C@H](N)C5)C(F)(F)F)cn34)nc12 [Example 121, 2-(2-(6-((R)-1-((S)-3-aminopyrrolidin-1-yl)-2,2,2-trifluoroethyl)-[1,2,4]triazolo[4,3-a]pyridin-3-yl)-6-fluoroquinolin-8-yl)-2-methylpropan-1-ol dihydrochloride]
4 | 0.7 nM | 0.2 nM | > 100 nM | CC(=O)OCCOc1cc2nc(-c3nnc4ccc([C@@H](N5CC[C@H](N)C5)C(F)(F)F)cn34)ccc2cc1F [Example 122, 2-(2-(6-((R)-1-((S)-3-aminopyrrolidin-1-yl)-2,2,2-trifluoroethyl)-[1,2,4]triazolo[4,3-a]pyridin-3-yl)-6-fluoroquinolin-7-yloxy)ethyl acetate hydrochloride]
5 | 0.4 nM | 0.2 nM | 73 nM | N[C@H]1CCN([C@H](c2ccc3nnc(-c4ccc5cc(F)c(OCCO)cc5n4)n3c2)C(F)(F)F)C1 [Example 123, 2-(2-(6-((R)-1-((S)-3-aminopyrrolidin-1-yl)-2,2,2-trifluoroethyl)-[1,2,4]triazolo[4,3-a]pyridin-3-yl)-6-fluoroquinolin-7-yloxy)ethanol hydrochloride]
6 | 0.7 nM | 0.21 nM | > 100 nM | COc1ccc2ccc(-c3nnc4ccc([C@@H](N5CC[C@H](N)C5)C(F)(F)F)cn34)nc2c1C [Example 124, (S)-1-((R)-2,2,2-trifluoro-1-(3-(7-methoxy-8-methylquinolin-2-yl)-[1,2,4]triazolo[4,3-a]pyridin-6-yl)ethyl)pyrrolidin-3-amine hydrochloride]
7 | 0.4 nM | 0.11 nM | 6.2 nM | N[C@H]1CCN([C@H](c2ccc3nnc(-c4ccc5cc(F)cc(C6(CO)CC6)c5n4)n3c2)C(F)(F)F)C1 [Example 125, (1-(2-(6-((R)-1-((S)-3-aminopyrrolidin-1-yl)-2,2,2-trifluoroethyl)-[1,2,4]triazolo[4,3-a]pyridin-3-yl)-6-fluoroquinolin-8-yl)cyclopropyl)methanol dihydrochloride]
8 | 1.9 nM | 0.28 nM | > 100 nM | OCC1(c2cc(F)cc3ccc(-c4nnc5ccc([C@@H](N6CC[C@H](O)C6)C(F)(F)F)cn45)nc23)CC1 [Example 126, (S)-1-((R)-2,2,2-trifluoro-1-(3-(6-fluoro-8-(1-(hydroxymethyl)cyclopropyl)quinolin-2-yl)-[1,2,4]triazolo[4,3-a]pyridin-6-yl)ethyl)pyrrolidin-3-ol hydrochloride]
9 | 11 nM | 3.28 nM | > 100 nM | COc1cc(C)cc2ccc(-c3nnc4ccc([C@@H](N5CC[C@H](N)C5)C(F)(F)F)cn34)nc12 [Example 127, (S)-1-((R)-2,2,2-trifluoro-1-(3-(8-methoxy-6-methylquinolin-2-yl)-[1,2,4]triazolo[4,3-a]pyridin-6-yl)ethyl)pyrrolidin-3-amine hydrochloride]
10 | 0.7 nM | 0.58 nM | > 100 nM | Cc1cc(OC(C)C)c2nc(-c3nnc4ccc([C@@H](N5CC[C@H](N)C5)C(F)(F)F)cn34)ccc2c1 [Example 128, (S)-1-((R)-2,2,2-trifluoro-1-(3-(8-isopropoxy-6-methylquinolin-2-yl)-[1,2,4]triazolo[4,3-a]pyridin-6-yl)ethyl)pyrrolidin-3-amine hydrochloride]
11 | 7.7 nM | 1.6 nM | 621 nM | CC(C)Oc1cccc2ccc(-c3nnc4ccc([C@@H](N5C[C@@H](N)[C@@H](O)C5)C(F)(F)F)cn34)nc12 [Example 129, (3S,4R)-4-amino-1-((R)-2,2,2-trifluoro-1-(3-(8-isopropoxyquinolin-2-yl)-[1,2,4]triazolo[4,3-a]pyridin-6-yl)ethyl)pyrrolidin-3-ol dihydrochloride]
12 | 28 nM | 9.03 nM | 756 nM | CC(C)(C)c1cccc2ccc(-c3nnc4ccc([C@@H](N5C[C@@H](N)[C@@H](O)C5)C(F)(F)F)cn34)nc12 [Example 130, (3S,4R)-4-amino-1-((R)-1-(3-(8-tert-butylquinolin-2-yl)-[1,2,4]triazolo[4,3-a]pyridin-6-yl)-2,2,2-trifluoroethyl)pyrrolidin-3-ol dihydrochloride]
13 | 17 nM | 2.18 nM | 787 nM | COc1cc2nc(-c3nnc4ccc([C@@H](N5C[C@@H](N)[C@@H](O)C5)C(F)(F)F)cn34)ccc2cc1F [Example 131, (3S,4R)-4-amino-1-((R)-2,2,2-trifluoro-1-(3-(6-fluoro-7-methoxyquinolin-2-yl)-[1,2,4]triazolo[4,3-a]pyridin-6-yl)ethyl)pyrrolidin-3-ol dihydrochloride]
14 | 16 nM | 4.42 nM | 538 nM | CC(C)Oc1cc(F)cc2ccc(-c3nnc4ccc([C@@H](N5C[C@@H](N)[C@@H](O)C5)C(F)(F)F)cn34)nc12 [Example 132, (3S,4R)-4-amino-1-((R)-2,2,2-trifluoro-1-(3-(6-fluoro-8-isopropoxyquinolin-2-yl)-[1,2,4]triazolo[4,3-a]pyridin-6-yl)ethyl)pyrrolidin-3-ol dihydrochloride]
15 | 0.6 nM | 0.38 nM | 48 nM | N[C@H]1CCN([C@H](c2ccc3nnc(-c4ccc5cc(F)c(OCC6CC6)cc5n4)n3c2)C(F)(F)F)C1 [Example 134, (S)-1-((R)-1-(3-(7-(cyclopropylmethoxy)-6-fluoroquinolin-2-yl)-[1,2,4]triazolo[4,3-a]pyridin-6-yl)-2,2,2-trifluoroethyl)pyrrolidin-3-amine hydrochloride]
16 | 3 nM | 1.41 nM | 82 nM | CC(C)Oc1cc(F)cc2ccc(-c3nnc4ccc([C@H](N5CC[C@H](N)C5)C(F)(F)F)cn34)nc12 [Example 135, (S)-1-((S)-2,2,2-trifluoro-1-(3-(6-fluoro-8-isopropoxyquinolin-2-yl)-[1,2,4]triazolo[4,3-a]pyridin-6-yl)ethyl)pyrrolidin-3-amine hydrochloride]
17 | 5 nM | 0.87 nM | 96 nM | COc1cc2nc(-c3nnc4ccc([C@H](N5CC[C@H](N)C5)C(F)(F)F)cn34)ccc2cc1F [Example 136, (S)-1-((S)-2,2,2-trifluoro-1-(3-(6-fluoro-7-methoxyquinolin-2-yl)-[1,2,4]triazolo[4,3-a]pyridin-6-yl)ethyl)pyrrolidin-3-amine hydrochloride]
18 | 34 nM | 3.5 nM | > 1000 nM | COc1cccc2ccc(-c3nnc4ccc([C@@H](N5C[C@@H](N)[C@@H](O)C5)C(F)(F)F)cn34)nc12 [Example 137, (3S,4R)-4-amino-1-((R)-2,2,2-trifluoro-1-(3-(8-methoxyquinolin-2-yl)-[1,2,4]triazolo[4,3-a]pyridin-6-yl)ethyl)pyrrolidin-3-ol dihydrochloride]
19 | 9.5 nM | 2.03 nM | > 100 nM | COc1cc2nc(-c3nnc4ccc([C@@H](N5CC[C@H](N)C5)C(F)(F)F)cn34)ccc2cc1C [Example 138, (S)-1-((R)-2,2,2-trifluoro-1-(3-(7-methoxy-6-methylquinolin-2-yl)-[1,2,4]triazolo[4,3-a]pyridin-6-yl)ethyl)pyrrolidin-3-amine hydrochloride]
20 | 4.9 nM | 0.58 nM | > 100 nM | COc1ccc2ccc(-c3nnc4ccc([C@@H](N5CC[C@H](N)C5)C(F)(F)F)cn34)nc2c1 [Example 139, (S)-1-((R)-2,2,2-trifluoro-1-(3-(7-methoxyquinolin-2-yl)-[1,2,4]triazolo[4,3-a]pyridin-6-yl)ethyl)pyrrolidin-3-amine dihydrochloride]
21 | 0.5 nM | 0.12 nM | 54 nM | COC[C@@H](C)Oc1cccc2ccc(-c3nnc4ccc([C@@H](N5CC[C@H](N)C5)C(F)(F)F)cn34)nc12 [Example 140, (S)-1-((R)-2,2,2-trifluoro-1-(3-(8-((R)-1-methoxypropan-2-yloxy)quinolin-2-yl)-[1,2,4]triazolo[4,3-a]pyridin-6-yl)ethyl)pyrrolidin-3-amine dihydrochloride]
